pEC50: −log10 of the molar value. Read-outs that look alike come from different tables or passages of the source.
Assays:
[1] = Chiral plasma pharmacokinetics of bupropion and hydroxybupropion; details: for effect of MDMA co-administration on plasma concentrations: bupropion+MDMA vs bupropion+placebo; for half-life: both, human, plasma, oral
[2] = parameters: method as in ref [46] (a number printed in a supplementary file, which may have a reference list of its own: not looked up in the article's list); details: ref [46]; cited from earlier work
DAT [3] = details: cited from earlier work
DAT [4] = test system: DAT; parameters: method as in ref [15] (a number printed in a supplementary file, which may have a reference list of its own: not looked up in the article's list); details: rat synaptosomes, without bupropion; ref [15]; read-out: EC50 of DAT-mediated amphetamine-induced DA release; cited from earlier work
[5] = Chiral plasma pharmacokinetics of MDMA and its phase I and II metabolites after controlled MDMA administration; format: in vivo, human; details: for AUC(0-t) / Tmax / Cmax / half-life: human, plasma; for change in AUC24 after bupropion pretreatment / change in Cmax after bupropion pretreatment: bupropion+MDMA vs placebo+MDMA, unsigned = increase
Procedure: Blood plasma samples were analyzed non-stereoselectively as reported previously and reanalyzed for the present report using liquid chromatography-mass spectrometry/mass spectrometry after chiral derivatization with Marfey’s reagent as described previously. The method was fully validated, including selectivity, recovery, matrix effects, bias and imprecision, stability, and limit of quantification.

[6] = 125 mg single dose; ref [3, 61]; cited from earlier work
serotonin transporter = details: four weeks after MDMA 1.5-1.7 mg/kg, MDMA-naïve volunteers; ref [123, 124]; cited from earlier work
[7] = both sexes, oral, 125 mg, placebo+MDMA (125 mg), CYP2D6 EM, n=13, plasma, read-out: AUC0-24h R
[8] = both sexes, oral, 125 mg, placebo+MDMA (125 mg), CYP2D6 EM, n=13, plasma, read-out: tmax R
[9] = both sexes, oral, bupropion+MDMA (125 mg), CYP2D6 EM (EM/Bup), n=13, plasma, read-out: AUC0-24h R
[10] = both sexes, oral, bupropion+MDMA (125 mg), CYP2D6 EM (EM/Bup), n=13, plasma, read-out: Cmax R
[11] = both sexes, oral, bupropion+MDMA (125 mg), CYP2D6 EM (EM/Bup), n=13, plasma, read-out: t1/2 R (converted)
[12] = both sexes, oral, bupropion+MDMA (125 mg), CYP2D6 EM (EM/Bup), n=13, plasma, read-out: tmax R
[13] = both sexes, oral, placebo+MDMA (125 mg), CYP2D6 EM, n=13, plasma, read-out: Cmax R
[14] = both sexes, oral, placebo+MDMA (125 mg), CYP2D6 EM, n=13, plasma, read-out: t1/2 R (converted)
[15] = bupropion+MDMA (125 mg), CYP2D6 EM (EM/Bup), n=13, plasma
[16] = placebo+MDMA (125 mg), CYP2D6 EM, n=13, plasma
[17] = placebo+MDMA (125 mg), CYP2D6 IM, n=3, plasma
[18] = placebo-pretreated EMs, same-configuration MDMA enantiomer
[19] = bupropion vs placebo pretreatment
[20] = bupropion vs placebo pretreatment, CYP2D6 EMs
[21] = both sexes, oral, 125 mg, placebo+MDMA (125 mg), CYP2D6 EM, n=13, plasma, read-out: AUC0-24h S
[22] = both sexes, oral, 125 mg, placebo+MDMA (125 mg), CYP2D6 EM, n=13, plasma, read-out: Cmax S
[23] = both sexes, oral, 125 mg, placebo+MDMA (125 mg), CYP2D6 EM, n=13, plasma, read-out: t1/2 S (converted)
[24] = both sexes, oral, 125 mg, placebo+MDMA (125 mg), CYP2D6 EM, n=13, plasma, read-out: tmax S
[25] = both sexes, oral, bupropion+MDMA (125 mg), CYP2D6 EM (EM/Bup), n=13, plasma, read-out: AUC0-24h S
[26] = both sexes, oral, bupropion+MDMA (125 mg), CYP2D6 EM (EM/Bup), n=13, plasma, read-out: Cmax S
[27] = both sexes, oral, bupropion+MDMA (125 mg), CYP2D6 EM (EM/Bup), n=13, plasma, read-out: t1/2 S (converted)
[28] = both sexes, oral, bupropion+MDMA (125 mg), CYP2D6 EM (EM/Bup), n=13, plasma, read-out: tmax S
[29] = im, placebo+MDMA (125 mg), CYP2D6 IM, n=3, plasma, read-out: AUC0-24h S
[30] = im, placebo+MDMA (125 mg), CYP2D6 IM, n=3, plasma, read-out: Cmax S
[31] = im, placebo+MDMA (125 mg), CYP2D6 IM, n=3, plasma, read-out: t1/2 S (converted)
[32] = im, placebo+MDMA (125 mg), CYP2D6 IM, n=3, plasma, read-out: tmax S

In the case of C[C@@H]1NC(C)(C)CO[C@@]1(O)c1cccc(Cl)c1 [S,S-hydroxybupropion, hydroxybupropion], the “effect of MDMA co-administration on plasma concentrations” value (shortened to “effect of MDMA co-administration”) [1] was “did not significantly alter”.

In the case of C[C@H]1NC(C)(C)CO[C@]1(O)c1cccc(Cl)c1 [R,R-hydroxybupropion, hydroxybupropion], the “effect of MDMA co-administration” value [1] was “did not significantly alter”.

For C[C@@H](NC(C)(C)C)C(=O)c1cccc(Cl)c1 [R-bupropion, bupropion], the half-life ([1]; 300 mg, t1/2 R/ R,R, bupropion+placebo (P), CYP2B6 genotype normal) was 8.4 h, the half-life ([1]; 300 mg, t1/2 R/ R,R, bupropion+placebo (P), CYP2B6 genotype reduced) was 8.9 h and the half-life ([1]; t1/2 R/ R,R, bupropion+MDMA (M), CYP2B6 genotype normal) was 8.5 h. The half-life ([1]; t1/2 R/ R,R, bupropion+MDMA (M), CYP2B6 genotype reduced) was 7.5 h and the “effect of MDMA co-administration” value [1] was “did not significantly alter”.

In the case of CC(NC(C)(C)C)C(=O)c1cccc(Cl)c1 (stereo not drawn) [bupropion], the T1/2 [2] is given as 20 h, the “DAT occupancy in the human striatum” value (DAT [3]; 150 mg twice-daily, 3 h after last dose, 11C-βCIT-FE PET, ref [16]) is given as 26% and the “striatal DAT occupancy” value (DAT [3]; 2.5 h after single 150 mg, 11C-raclopride PET, ref [83]) is given as “no significant”.

With CN[C@H](C)Cc1ccc(OS(=O)(=O)O)c(O)c1 [R-DHMA 4-sulfate] the “metabolite/MDMA ratio, mean constant (after approximately 2 h)” value (from here on “metabolite/MDMA ratio, mean constant”) ([5]; IMs) was 0.05, the “metabolite/MDMA ratio, mean initial (highest, first hour)” value (shortened to “metabolite/MDMA ratio, mean initial”) ([5]; IMs) was 0.94 and the AUC(0-t) [5, 7] was 1300 nM·h. For the same compound, the Tmax [5, 8] was 2 h, the AUC(0-t) [5, 9] was 710 nM·h and the Cmax [5, 10] was 0.037 µM. It also gave a half-life [5, 11] of 49.9 h, a Tmax [5, 12] of 3.2 h and a Cmax [5, 13] of 0.08 µM. For the same compound, the half-life [5, 14] was 17.5 h, the “AUCtotal R” value [5, 15] was 2.9 (2.2) μmol/l*h-1 and the “change in AUC24 after bupropion pretreatment” value (shortened to “change in AUC24”) ([5]; CYP2D6 EMs) was -43%. For the same compound, the “change in Cmax after bupropion pretreatment” value (“change in Cmax” for short) ([5]; CYP2D6 EMs) was -54%, the “metabolite/MDMA ratio, mean constant” value ([5]; bupropion-pretreated EMs) was 0.05 and the “metabolite/MDMA ratio, mean initial” value ([5]; bupropion-pretreated EMs) was 0.89. The “AUCtotal R” value [5, 16] was 2.4 (1.7) μmol/l*h-1, the “AUCtotal R” value [5, 17] was 1.5 (1.0) μmol/l*h-1 and the “metabolite/MDMA ratio, mean constant” value ([5]; placebo-pretreated EMs) was 0.13. For the same compound, the “metabolite/MDMA ratio, mean initial” value [5, 18] was 4.9.

For CNC(C)Cc1ccc2c(c1)OCO2 (stereo not drawn) [MDMA, 3,4-methylenedioxymethamphetamine], the T1/2 [6] is listed as 9.6 h, the Tmax [6] is listed as 2.5 h and the “mean overall effect on R/S ratios” value ([5]; CYP2D6 inhibition by bupropion) is listed as “less than 10%”. For the same compound, the “change of R/S ratio for AUC24 after bupropion pretreatment” value [5, 19] was -9%, the “change of R/S ratio for Cmax after bupropion pretreatment” value [5, 19] was -6% and the “change in serotonin transporter density” value (serotonin transporter) was “No changes”.

Work on C[C@H](NC(C)(C)C)C(=O)c1cccc(Cl)c1 [S-bupropion, bupropion] yielded a half-life ([1]; 300 mg, t1/2 S/ S,S, bupropion+placebo (P), CYP2B6 genotype normal) of 7.3 h, a half-life ([1]; 300 mg, t1/2 S/ S,S, bupropion+placebo (P), CYP2B6 genotype reduced) of 7.8 h and a half-life ([1]; t1/2 S/ S,S, bupropion+MDMA (M), CYP2B6 genotype normal) of 7.5 h. For the same compound, the half-life ([1]; t1/2 S/ S,S, bupropion+MDMA (M), CYP2B6 genotype reduced) was 6.8 h and the “effect of MDMA co-administration” value [1] was “did not significantly alter”.

In the case of CN[C@H](C)Cc1ccc2c(c1)OCO2 [R-MDMA, 3,4-methylenedioxymethamphetamine], the AUC(0-t) [5, 7] was 8700 nM·h, the Tmax [5, 8] was 2.9 h and the AUC(0-t) [5, 9] was 10900 nM·h. The Cmax [5, 10] was 0.75 µM, the half-life [5, 11] was 10.8 h and the Tmax [5, 12] was 3.3 h. For the same compound, the Cmax [5, 13] was 0.69 µM, the half-life [5, 14] was 8.2 h and the “prolongation of t1/2 after bupropion pretreatment” value [5, 20] was 31%. The “reduction of Cl/F after bupropion pretreatment” value [5, 20] was -23%, the “AUCtotal R” value [5, 15] was 14.2 (3.7) μmol/l*h-1 and the “CL/F R” value [5, 15] was 31.3 (8.2) l/h. The “change in AUC24” value ([5]; CYP2D6 EMs) was 25%, the “change in Cmax” value ([5]; CYP2D6 EMs) was 9% and the “AUCtotal R” value [5, 16] was 10.4 (3.6) μmol/l*h-1. The “CL/F R” value [5, 16] was 40.4 (14.2) l/h, the “AUCtotal R” value [5, 17] was 14.5 (4.3) μmol/l*h-1 and the “CL/F R” value [5, 17] was 29.8 (7.4) l/h.

With CN[C@@H](C)Cc1ccc(O)c(OS(=O)(=O)O)c1 [S-DHMA 3-sulfate] the “metabolite/MDMA ratio, mean constant” value ([5]; IMs) was 0.42, the “metabolite/MDMA ratio, mean initial” value ([5]; IMs) was 8.8 and the AUC(0-t) [5, 21] was 6300 nM·h. It also gave a Cmax [5, 22] of 0.59 µM, a half-life [5, 23] of 7.3 h and a Tmax [5, 24] of 1.5 h. The AUC(0-t) [5, 25] was 2800 nM·h, the Cmax [5, 26] was 0.2 µM and the half-life [5, 27] was 11.3 h. The Tmax [5, 28] was 2.4 h, the “AUCtotal S” value [5, 15] was 3.7 (2.1) μmol/l*h-1 and the “change in AUC24” value ([5]; CYP2D6 EMs) was -56%. For the same compound, the “change in Cmax” value ([5]; CYP2D6 EMs) was -67%, the “metabolite/MDMA ratio, mean constant” value ([5]; bupropion-pretreated EMs) was 0.34 and the “metabolite/MDMA ratio, mean initial” value ([5]; bupropion-pretreated EMs) was 1.8. For the same compound, the AUC(0-t) [5, 29] was 3000 nM·h, the Cmax [5, 30] was 0.28 µM and the half-life [5, 31] was 7 h. For the same compound, the Tmax [5, 32] was 1.9 h, the “AUCtotal S” value [5, 16] was 7.1 (3.1) μmol/l*h-1 and the “AUCtotal S” value [5, 17] was 3.3 (1.1) μmol/l*h-1. The “metabolite/MDMA ratio, mean constant” value ([5]; placebo-pretreated EMs) was 1.1 and the “metabolite/MDMA ratio, mean initial” value [5, 18] was 33.

For CN[C@@H](C)Cc1ccc(OS(=O)(=O)O)c(O)c1 [S-DHMA 4-sulfate], the “metabolite/MDMA ratio, mean constant” value ([5]; IMs) was 0.05, the “metabolite/MDMA ratio, mean initial” value ([5]; IMs) was 0.91 and the AUC(0-t) [5, 21] was 640 nM·h. The Cmax [5, 22] was 0.055 µM, the half-life [5, 23] was 8.1 h and the Tmax [5, 24] was 1.7 h. It also gave an AUC(0-t) [5, 25] of 320 nM·h, a Cmax [5, 26] of 0.021 µM and a half-life [5, 27] of 14.3 h. The Tmax [5, 28] was 2.4 h, the “AUCtotal S” value [5, 15] was 0.48 (0.19) μmol/l*h-1 and the “change in AUC24” value ([5]; CYP2D6 EMs) was -50%. For the same compound, the “change in Cmax” value ([5]; CYP2D6 EMs) was -61%, the “metabolite/MDMA ratio, mean constant” value ([5]; bupropion-pretreated EMs) was 0.04 and the “metabolite/MDMA ratio, mean initial” value ([5]; bupropion-pretreated EMs) was 0.60. It also gave an AUC(0-t) [5, 29] of 400 nM·h, a Cmax [5, 30] of 0.029 µM and a half-life [5, 31] of 12.1 h. The Tmax [5, 32] was 2.1 h, the “AUCtotal S” value [5, 16] was 0.80 (0.37) μmol/l*h-1 and the “AUCtotal S” value [5, 17] was 0.59 (0.30) μmol/l*h-1. For the same compound, the “metabolite/MDMA ratio, mean constant” value ([5]; placebo-pretreated EMs) was 0.11 and the “metabolite/MDMA ratio, mean initial” value [5, 18] was 3.8.
